What was measured:
Format in all cases: functional
A498 [1] = assay: Growth inhibition of human A498 cells assessed as cell growth at 10^-4 M by sulforhodamine B assay; details: read-out: Activity
SF-539 [2] = assay: Growth inhibition of human SF539 cells assessed as cell growth at 10^-8 M by sulforhodamine B assay; details: read-out: Activity
SK-OV-3 [3] = assay: Growth inhibition of human SKOV3 cells by sulforhodamine B assay
[4] = Growth inhibition of human Hs 578T cells assessed as cell growth at 10^-7 M by sulforhodamine B assay; details: read-out: Activity
NCI-H226 [5] = assay: Growth inhibition of human NCI-H226 cells by sulforhodamine B assay
PC-3 [6] = assay: Growth inhibition of human PC3 cells by sulforhodamine B assay
UO-31 = assay: Growth inhibition of human UO31 cells by sulforhodamine B assay
MDA-MB-468 = assay: Growth inhibition of human MDA-MB-468 cells assessed as cell growth at 10^-6 M by sulforhodamine B assay; details: read-out: Activity
SK-MEL-5 = assay: Growth inhibition of human SK-MEL-5 cells assessed as cell growth at 10^-6 M by sulforhodamine B assay; details: read-out: Activity
PC-3 [7] = assay: Growth inhibition of human PC3 cells assessed as cell growth at 10^-7 M by sulforhodamine B assay; details: read-out: Activity
NCI-H322M [8] = assay: Growth inhibition of human NCI-H322M cells assessed as cell growth at 10^-8 M by sulforhodamine B assay; details: read-out: Activity
LOX IMVI = assay: Growth inhibition of human LOXIMVI cells assessed as cell growth at 10^-8 M by sulforhodamine B assay; details: read-out: Activity
COLO 205 = assay: Growth inhibition of human COLO205 cells assessed as cell growth at 10^-4 M by sulforhodamine B assay; details: read-out: Activity
RPMI-8226 [9] = assay: Growth inhibition of human RPMI8226 cells assessed as cell growth at 10^-4 M by sulforhodamine B assay; details: read-out: Activity
SF-539 [10] = assay: Growth inhibition of human SF539 cells by sulforhodamine B assay
HT-29 [11] = assay: Growth inhibition of human HT-29 cells by sulforhodamine B assay
UACC-62 = assay: Growth inhibition of human UACC62 cells by sulforhodamine B assay
HOP-92 = assay: Growth inhibition of human HOP92 cells assessed as cell growth at 10^-8 M by sulforhodamine B assay; details: read-out: Activity
NCI-H226 [12] = assay: Growth inhibition of human NCI-H226 cells assessed as cell growth at 10^-8 M by sulforhodamine B assay; details: read-out: Activity
M14 = assay: Growth inhibition of human M14 cells assessed as cell growth at 10^-8 M by sulforhodamine B assay; details: read-out: Activity
HOP-62 = assay: Growth inhibition of human HOP62 cells assessed as cell growth at 10^-4 M by sulforhodamine B assay; details: read-out: Activity
DU-145 = assay: Growth inhibition of human DU145 cells assessed as cell growth at 10^-7 M by sulforhodamine B assay; details: read-out: Activity
BT-549 = assay: Growth inhibition of human BT549 cells assessed as cell growth at 10^-8 M by sulforhodamine B assay; details: read-out: Activity
HCT-116 = assay: Growth inhibition of human HCT116 cells assessed as cell growth at 10^-4 M by sulforhodamine B assay; details: read-out: Activity
SNB-75 = assay: Growth inhibition of human SNB75 cells assessed as cell growth at 10^-6 M by sulforhodamine B assay; details: read-out: Activity
UACC-257 = assay: Growth inhibition of human UACC257 cells assessed as cell growth at 10^-4 M by sulforhodamine B assay; details: read-out: Activity
KM12 = assay: Growth inhibition of human KM12 cells assessed as cell growth at 10^-7 M by sulforhodamine B assay; details: read-out: Activity
OVCAR-5 [13] = assay: Growth inhibition of human OVCAR5 cells assessed as cell growth at 10^-4 M by sulforhodamine B assay; details: read-out: Activity
SF-539 [14] = assay: Growth inhibition of human SF539 cells assessed as cell growth at 10^-7 M by sulforhodamine B assay; details: read-out: Activity
786-0 = assay: Growth inhibition of human 786-0 cells assessed as cell growth at 10^-8 M by sulforhodamine B assay; details: read-out: Activity
CAKI-1 = assay: Growth inhibition of human CAKI-1 cells by sulforhodamine B assay
RPMI-8226 [15] = assay: Growth inhibition of human RPMI8226 cells assessed as cell growth at 10^-7 M by sulforhodamine B assay; details: read-out: Activity
A498 [16] = assay: Growth inhibition of human A498 cells assessed as cell growth at 10^-7 M by sulforhodamine B assay; details: read-out: Activity
SK-OV-3 [17] = assay: Growth inhibition of human SKOV3 cells assessed as cell growth at 10^-6 M by sulforhodamine B assay; details: read-out: Activity
OVCAR-5 [18] = assay: Growth inhibition of human OVCAR5 cells assessed as cell growth at 10^-6 M by sulforhodamine B assay; details: read-out: Activity
NCI-H460 = assay: Growth inhibition of human NCI-H460 cells assessed as cell growth at 10^-7 M by sulforhodamine B assay; details: read-out: Activity
SK-MEL-2 = assay: Growth inhibition of human SK-MEL-2 cells by sulforhodamine B assay
HT-29 [19] = assay: Growth inhibition of human HT-29 cells assessed as cell growth at 10^-4 M by sulforhodamine B assay; details: read-out: Activity
NCI-H322M [20] = assay: Growth inhibition of human NCI-H322M cells assessed as cell growth at 10^-4 M by sulforhodamine B assay; details: read-out: Activity
[21] = read-out: LC50 (the source's name)
[22] = read-out: pLC50 (the source's name) (converted)

Question: With `CC(C)=CC(=O)O[C@@H]1CC(C)(C)C[C@H]2C3=CC[C@@H]4[C@@]5(C)CCC(=O)C(C)(C)[C@@H]5CC[C@@]4(C)[C@]3(C)CC[C@@]12C(=O)O` as the compound, how does the growth at 100 µM (A498 [1]) read?
Answer: -44%

Question: What about the growth at 0.01 µM (SF-539 [2]) of the same compound?
Answer: 93%

Question: And the GI50 (SK-OV-3 [3]; read-out: GI50)?
Answer: 16.6 µM

Question: And the CC50 (SK-OV-3 [3]; [21])?
Answer: > 100 µM

Question: And the TGI (SK-OV-3 [3]; read-out: TGI)?
Answer: > 100 µM

Question: And the GI50 (SK-OV-3 [3]; read-out: pGI50 (converted))?
Answer: 16.6 µM

Question: And the CC50 (SK-OV-3 [3]; [22])?
Answer: > 100 µM

Question: And the TGI (SK-OV-3 [3]; read-out: pTGI (converted))?
Answer: > 100 µM

Question: What about the growth at 0.1 µM [4] of the same compound?
Answer: 93%

Question: And the GI50 (NCI-H226 [5]; read-out: GI50)?
Answer: 5.68 µM

Question: What about the LC50 (NCI-H226 [5]; read-out: LC50) of the same compound?
Answer: > 100 µM

Question: And the TGI (NCI-H226 [5]; read-out: TGI)?
Answer: > 100 µM

Question: What about the GI50 (NCI-H226 [5]; read-out: pGI50 (converted)) of the same compound?
Answer: 5.62 µM

Question: What about the LC50 (NCI-H226 [5]; read-out: pLC50 (converted)) of the same compound?
Answer: > 100 µM

Question: And the TGI (NCI-H226 [5]; read-out: pTGI (converted))?
Answer: > 100 µM

Question: What about the GI50 (PC-3 [6]; read-out: GI50) of the same compound?
Answer: 1.55 µM

Question: And the CC50 (PC-3 [6]; [21])?
Answer: > 100 µM

Question: And the TGI (PC-3 [6]; read-out: TGI)?
Answer: 89.1 µM

Question: What about the GI50 (PC-3 [6]; read-out: pGI50 (converted)) of the same compound?
Answer: 1.55 µM

Question: And the CC50 (PC-3 [6]; [22])?
Answer: > 100 µM

Question: And the TGI (PC-3 [6]; read-out: pTGI (converted))?
Answer: 89.1 µM

Question: What about the GI50 (UO-31; read-out: GI50) of the same compound?
Answer: 2.95 µM

Question: And the CC50 (UO-31; [21])?
Answer: > 100 µM

Question: What about the TGI (UO-31; read-out: TGI) of the same compound?
Answer: 32.2 µM

Question: What about the GI50 (UO-31; read-out: pGI50 (converted)) of the same compound?
Answer: 2.95 µM

Question: And the CC50 (UO-31; [22])?
Answer: > 100 µM

Question: And the TGI (UO-31; read-out: pTGI (converted))?
Answer: 32.4 µM

Question: And the growth at 1 µM (MDA-MB-468)?
Answer: 74%

Question: What about the growth at 1 µM (SK-MEL-5) of the same compound?
Answer: 60%

Question: What about the growth at 0.1 µM (PC-3 [7]) of the same compound?
Answer: 86%

Question: What about the growth at 0.01 µM (NCI-H322M [8]) of the same compound?
Answer: 93%

Question: And the growth at 0.01 µM (LOX IMVI)?
Answer: 98%

Question: What about the growth at 100 µM (COLO 205) of the same compound?
Answer: -76%

Question: What about the growth at 100 µM (RPMI-8226 [9]) of the same compound?
Answer: -19%

Question: And the GI50 (SF-539 [10]; read-out: GI50)?
Answer: 4.75 µM

Question: And the CC50 (SF-539 [10]; [21])?
Answer: > 100 µM

Question: And the TGI (SF-539 [10]; read-out: TGI)?
Answer: 24.2 µM

Question: And the GI50 (SF-539 [10]; read-out: pGI50 (converted))?
Answer: 4.79 µM

Question: What about the CC50 (SF-539 [10]; [22]) of the same compound?
Answer: > 100 µM

Question: And the TGI (SF-539 [10]; read-out: pTGI (converted))?
Answer: 24 µM

Question: And the GI50 (HT-29 [11]; read-out: GI50)?
Answer: 3.94 µM

Question: What about the LC50 (50% cell kill) (HT-29 [11]; read-out: LC50) of the same compound?
Answer: > 100 µM

Question: What about the TGI (HT-29 [11]; read-out: TGI) of the same compound?
Answer: 32.3 µM

Question: And the GI50 (HT-29 [11]; read-out: pGI50 (converted))?
Answer: 3.98 µM

Question: And the LC50 (50% cell kill) (HT-29 [11]; read-out: pLC50 (converted))?
Answer: > 100 µM

Question: What about the TGI (HT-29 [11]; read-out: pTGI (converted)) of the same compound?
Answer: 32.4 µM

Question: What about the GI50 (UACC-62; read-out: GI50) of the same compound?
Answer: 2.47 µM

Question: What about the CC50 (UACC-62; [21]) of the same compound?
Answer: 48.5 µM

Question: What about the TGI (UACC-62; read-out: TGI) of the same compound?
Answer: 14.2 µM

Question: And the GI50 (UACC-62; read-out: pGI50 (converted))?
Answer: 2.45 µM

Question: What about the CC50 (UACC-62; [22]) of the same compound?
Answer: 49 µM

Question: And the TGI (UACC-62; read-out: pTGI (converted))?
Answer: 14.1 µM

Question: And the growth at 0.01 µM (HOP-92)?
Answer: 97%

Question: What about the growth at 0.01 µM (NCI-H226 [12]) of the same compound?
Answer: 95%

Question: And the growth at 0.01 µM (M14)?
Answer: 98%

Question: What about the growth at 100 µM (HOP-62) of the same compound?
Answer: -21%

Question: And the growth at 0.1 µM (DU-145)?
Answer: 105%

Question: And the growth at 0.01 µM (BT-549)?
Answer: 114%

Question: And the growth at 100 µM (HCT-116)?
Answer: -6%

Question: And the growth at 1 µM (SNB-75)?
Answer: 87%

Question: And the growth at 100 µM (UACC-257)?
Answer: -15%

Question: What about the growth at 0.1 µM (KM12) of the same compound?
Answer: 85%

Question: What about the growth at 100 µM (OVCAR-5 [13]) of the same compound?
Answer: -39%

Question: What about the growth at 0.1 µM (SF-539 [14]) of the same compound?
Answer: 91%

Question: What about the growth at 0.01 µM (786-0) of the same compound?
Answer: 99%

Question: And the GI50 (CAKI-1; read-out: GI50)?
Answer: 3.84 µM

Question: And the CC50 (CAKI-1; [21])?
Answer: > 100 µM

Question: What about the TGI (CAKI-1; read-out: TGI) of the same compound?
Answer: 84.8 µM

Question: And the GI50 (CAKI-1; read-out: pGI50 (converted))?
Answer: 3.8 µM

Question: What about the CC50 (CAKI-1; [22]) of the same compound?
Answer: > 100 µM

Question: What about the TGI (CAKI-1; read-out: pTGI (converted)) of the same compound?
Answer: 85.1 µM

Question: What about the growth at 0.1 µM (RPMI-8226 [15]) of the same compound?
Answer: 91%

Question: What about the growth at 0.1 µM (A498 [16]) of the same compound?
Answer: 80%

Question: What about the growth at 1 µM (SK-OV-3 [17]) of the same compound?
Answer: 108%

Question: And the growth at 1 µM (OVCAR-5 [18])?
Answer: 86%

Question: And the growth at 0.1 µM (NCI-H460)?
Answer: 101%

Question: What about the GI50 (SK-MEL-2; read-out: GI50) of the same compound?
Answer: 3.48 µM

Question: What about the CC50 (SK-MEL-2; [21]) of the same compound?
Answer: 61.3 µM

Question: What about the TGI (SK-MEL-2; read-out: TGI) of the same compound?
Answer: 16.9 µM

Question: And the GI50 (SK-MEL-2; read-out: pGI50 (converted))?
Answer: 3.47 µM

Question: What about the CC50 (SK-MEL-2; [22]) of the same compound?
Answer: 61.7 µM

Question: And the TGI (SK-MEL-2; read-out: pTGI (converted))?
Answer: 17 µM

Question: What about the growth at 100 µM (HT-29 [19]) of the same compound?
Answer: -27%

Question: What about the growth at 100 µM (NCI-H322M [20]) of the same compound?
Answer: -25%

— ChEMBL document CHEMBL2413072, “Synthesis and in vitro anticancer studies of novel C-2 arylidene congeners of lantadenes” (2013)
